In US8008322B2, “Substituted pyrazolopyridines, compositions containing them, method for the production thereof, and their use” (Aventis Pharma S.A., priority 2005, dated 2011):
pIC50: −log10 of the molar value.

Key:
human FAK = biological target: T1, human FAK (Homo sapiens, UniProt Q05397); experiment: FAK autophosphorylation inhibition, time-resolved fluorescence test (HTRF); format: biochemical; conditions: 15 μM ATP, 1 hour at 37° C., read-out: FAK IC 50
T1 construct: The whole cDNA of human FAK, the N-terminal end of which has been labelled with histidine; made in house; host or cells: baculovirus expression system (pFastBac HTc)
Protocol: The inhibitory activity of the compounds on FAK is determined by measuring the inhibition of autophosphorylation of the enzyme using a time-resolved fluorescence test (HTRF).
The whole cDNA of human FAK, the N-terminal end of which has been labelled with histidine, was cloned in a pFastBac HTc baculovirus expression vector. The protein was expressed and purified to about 70% homogeneity.
The kinase activity is determined by incubating the enzyme (6.6 μg/mL) with different concentrations of test compound in a 50 mM Hepes pH=7.2, 10 mM MgCl2, 100 μm Na3VO4, 15 μM ATP buffer for 1 hour at 37° C. The enzymatic reaction is stopped by adding Hepes pH=7.0 buffer containing 0.4 mM KF, 133 mM EDTA, 0.1% BSA and the labelling is performed, for 1 to 2 hours at room temperature, by adding to this buffer an anti-Histidine antibody labelled with XL665 and a tyrosine phosphospecific monoclonal antibody conjugated to europium cryptate (Eu—K). The characteristics of the two fluorophores are available in G. Mathis et al., Anticancer Research, 1997, 17, pages 3011-3014. The energy transfer from the excited europium cryptate to the acceptor XL665 is proportional to the degree of autophosphorylation of FAK. The long-lasting signal specific for XL-665 is measured in a Packard Discovery plate counter. All the tests are performed in duplicate and the average of the two tests is calculated. The inhibition of the autophosphorylation activity of FAK with compounds of the invention is expressed as a percentage of inhibition relative to a control whose activity is measured in the absence of test compound. To calculate the percentage inhibition, the ratio [signal at 665 nm/signal at 620 nm] is considered.

human KDR enzyme = biological target: T2, human KDR enzyme (Homo sapiens, UniProt P35968); experiment: KDR substrate phosphorylation inhibition, scintillation technique; format: biochemical; conditions: GST-KDR cytoplasmic domain, substrate SH2-SH3 fragment of PLCγ, 33P-ATP, one hour at 37° C.; read-out: KDR IC 50
T2 construct: The cytoplasmic domain of the human KDR enzyme was cloned in the form of a GST fusion protein; GST; made in house; host or cells: SF21 insect cells (baculovirus, pFastBac)
Protocol: The inhibitory effect of the compounds is determined in an in vitro test of phosphorylation of substrate with the enzyme KDR via a scintillation technique (96-well plate, NEN).
The cytoplasmic domain of the human KDR enzyme was cloned in the form of a GST fusion protein in the pFastBac baculovirus expression vector.
The KDR kinase activity is measured in a 20 mM MOPS, 10 mM MgCl2, 10 mM MnCl2, 1 mM DTT, 2.5 mM EGTA, 10 mM b-glycerophosphate, pH=7.2 buffer, in the presence of 10 mM MgCl2, 100 μm Na3VO4, 1 mM NaF. 10 μl of the compound are added to 70 μL of kinase buffer containing 100 ng of KDR enzyme at 4° C. The reaction is initiated by adding 20 μL of solution containing 2 μg of substrate (SH2-SH3 fragment of PLCγ expressed in the form of a GST fusion protein), 2 μCi of γ^33P[ATP] and 2 μm of cold ATP. After incubation for one hour at 37° C., the reaction is stopped by adding 1 volume (100 μl) of 200 mM EDTA. The incubation buffer is removed, and the wells are washed three times with 300 μL of PBS. The radioactivity in each well is measured using a Top Count NXT radioactivity counter (Packard).
The background is determined by measuring the radioactivity in four different wells containing radioactive ATP and the substrate alone.
A total activity control is measured in four different wells containing all the reagents (γ^33P-[ATP], KDR and substrate PLCγ), but in the absence of compound.
The inhibition of the KDR activity with the compound of the invention is expressed as a percentage of inhibition of the control activity determined in the absence of compound.

human Tie2 = biological target: T3, human Tie2 (Homo sapiens, UniProt Q02763); experiment: Tie2 phosphorylation of PLC inhibition, FlashPlate radioactivity; format: biochemical; conditions: GST-Tie2 intracellular domain 776-1124, substrate GST-PLC, 33P-ATP, one hour at 37° C.; read-out: TIE2 IC 50
T3 construct: the amino acids of the intracellular domain 776-1124; made in house; host or cells: baculovirus expression system (pFastBacGT)
Protocol: This sequence was introduced into a pFastBacGT baculovirus expression vector in the form of a GST fusion protein. The inhibitory effect of the molecules is determined in a test of phosphorylation of PLC with Tie2 in the presence of GST-Tie2 purified to about 80% homogeneity. The substrate is composed of the SH2-SH3 fragments of PLC expressed in the form of a GST fusion protein.
The kinase activity of Tie2 is measured in a MOPS 20 mM pH 7.2 buffer, containing 10 mM MgCl2, 10 mM MnCl2, 1 mM DTT, 10 mM of glycerophosphate. In a 96-well FlashPlate plate maintained on ice, a reaction mixture is deposited, composed of 70 μL of kinase buffer containing 100 ng of enzyme GST-Tie2 per well. Next, 10 μL of the test molecule diluted in DMSO to a maximum concentration of 10% are added. For a given concentration, each measurement is performed four times. […] After incubation for one hour at 37° C., the reaction is stopped by adding 1 volume (100 μl) of EDTA 200 mM. After removal of the incubation buffer, the wells are washed three times with 300 μL of PBS. The radioactivity is measured on a MicroBeta1450 Wallac.
The inhibition of the Tie2 activity is calculated and expressed as a percentage of inhibition relative to the control activity determined in the absence of compound.

T3 sequence (Q02763 776-1124): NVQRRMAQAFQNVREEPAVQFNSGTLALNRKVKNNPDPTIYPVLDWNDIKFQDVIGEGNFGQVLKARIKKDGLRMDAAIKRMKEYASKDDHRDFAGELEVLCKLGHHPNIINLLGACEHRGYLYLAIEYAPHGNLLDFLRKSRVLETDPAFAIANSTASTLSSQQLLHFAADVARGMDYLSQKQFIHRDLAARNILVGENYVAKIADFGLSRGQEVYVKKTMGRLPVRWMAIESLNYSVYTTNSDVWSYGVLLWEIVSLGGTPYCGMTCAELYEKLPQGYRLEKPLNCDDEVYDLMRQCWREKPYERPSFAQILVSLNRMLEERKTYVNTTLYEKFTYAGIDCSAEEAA
T2 sequence (P35968 786-1356 limits assumed): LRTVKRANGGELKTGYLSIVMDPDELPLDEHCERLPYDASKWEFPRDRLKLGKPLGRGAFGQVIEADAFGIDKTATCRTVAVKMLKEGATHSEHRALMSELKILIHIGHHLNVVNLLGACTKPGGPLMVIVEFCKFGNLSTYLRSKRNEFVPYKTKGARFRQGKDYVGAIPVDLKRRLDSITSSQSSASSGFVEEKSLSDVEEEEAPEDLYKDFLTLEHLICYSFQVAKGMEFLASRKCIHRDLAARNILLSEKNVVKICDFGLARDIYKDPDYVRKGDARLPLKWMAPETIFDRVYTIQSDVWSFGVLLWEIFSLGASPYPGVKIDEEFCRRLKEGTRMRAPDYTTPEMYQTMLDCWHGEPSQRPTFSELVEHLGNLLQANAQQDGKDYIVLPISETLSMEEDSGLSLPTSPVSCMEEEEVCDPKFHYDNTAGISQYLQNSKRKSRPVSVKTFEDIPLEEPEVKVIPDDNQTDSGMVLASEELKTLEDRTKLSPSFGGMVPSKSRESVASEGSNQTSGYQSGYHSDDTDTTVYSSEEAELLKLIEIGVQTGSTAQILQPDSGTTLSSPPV
T1 sequence (Q05397 whole entry): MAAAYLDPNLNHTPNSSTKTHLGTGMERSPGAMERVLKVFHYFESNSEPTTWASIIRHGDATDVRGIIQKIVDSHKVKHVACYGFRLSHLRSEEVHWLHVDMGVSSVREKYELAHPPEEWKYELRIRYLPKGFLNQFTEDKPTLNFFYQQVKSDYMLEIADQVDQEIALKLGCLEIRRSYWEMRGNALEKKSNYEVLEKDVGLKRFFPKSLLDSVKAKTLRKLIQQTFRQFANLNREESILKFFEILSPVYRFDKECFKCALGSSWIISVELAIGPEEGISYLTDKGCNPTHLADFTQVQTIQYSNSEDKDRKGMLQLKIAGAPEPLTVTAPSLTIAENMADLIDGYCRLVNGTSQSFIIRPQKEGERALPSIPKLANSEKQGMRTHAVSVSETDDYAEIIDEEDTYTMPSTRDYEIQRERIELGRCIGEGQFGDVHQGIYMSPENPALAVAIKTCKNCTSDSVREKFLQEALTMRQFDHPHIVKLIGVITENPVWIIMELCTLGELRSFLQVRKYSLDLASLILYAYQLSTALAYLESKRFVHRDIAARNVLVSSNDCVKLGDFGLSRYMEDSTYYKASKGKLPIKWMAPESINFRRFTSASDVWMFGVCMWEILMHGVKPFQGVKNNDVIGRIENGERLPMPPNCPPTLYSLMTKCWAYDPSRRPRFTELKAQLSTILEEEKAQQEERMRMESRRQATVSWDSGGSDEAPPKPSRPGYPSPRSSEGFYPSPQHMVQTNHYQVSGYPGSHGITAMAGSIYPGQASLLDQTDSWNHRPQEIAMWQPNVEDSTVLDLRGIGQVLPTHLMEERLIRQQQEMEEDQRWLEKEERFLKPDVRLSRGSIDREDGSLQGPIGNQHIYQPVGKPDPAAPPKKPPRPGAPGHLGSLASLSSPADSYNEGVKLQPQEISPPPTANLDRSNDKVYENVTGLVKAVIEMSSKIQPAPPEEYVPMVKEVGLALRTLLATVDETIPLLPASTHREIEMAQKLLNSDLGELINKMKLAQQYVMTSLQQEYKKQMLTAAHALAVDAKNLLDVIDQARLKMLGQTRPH

Row | Compound | pIC50 (human FAK) | pIC50 (human KDR enzyme) | pIC50 (human Tie2) | melting point [°C]
1 | Nc1n[nH]c2nccc(-c3ccc(NC(=O)Nc4cc(C(F)(F)F)ccc4F)cc3)c12 [Example 1, 1-[4-(3-Amino-1H-pyrazolo[3,4-b]pyrid-4-yl)phenyl]-3-(2-fluoro-5-trifluoromethylphenyl)urea] | 6.58 |  |  | 
2 | Nc1n[nH]c2nccc(-c3ccc(NC(=O)Nc4cc(C(F)(F)F)ccc4F)nc3)c12 [Example 2, 1-[5-(3-Amino-1H-pyrazolo[3,4-b]pyrid-4-yl)pyrid-2-yl]-3-(2-fluoro-5-trifluoromethylphenyl)urea] | 6.82 | 6.03 | 7.64 | 
3 | Nc1n[nH]c2ccnc(-c3ccc(NC(=O)Nc4cc(C(F)(F)F)ccc4F)nc3)c12 [Example 4, 1-[5-(3-Amino-1H-pyrazolo[4,3-c]pyrid-4-yl)pyrid-2-yl]-3-(2-fluoro-5-trifluoromethylphenyl)urea] | 7.10 | 6.66 | 8.40 | 
4 | COc1ccc(C(F)(F)F)cc1NC(=O)Nc1ccc(-c2ccnc3[nH]nc(N)c23)cc1 [Example 5, 1-[4-(3-Amino-1H-pyrazolo[3,4-b]pyrid-4-yl)phenyl]-3-(2-methoxy-5-trifluoromethylphenyl)urea] | 6.54 | 7.31 | 7.82 | > 260
5 | COc1ccc(C(F)(F)F)cc1NC(=O)Nc1ccc(-c2ccnc3[nH]nc(N)c23)cn1 [Example 6, 1-[5-(3-Amino-1H-pyrazolo[3,4-b]pyrid-4-yl)pyrid-2-yl]-3-(2-methoxy-5-trifluoromethylphenyl)urea] | 6.72 | 5.73 | 7.57 | > 260
6 | Nc1n[nH]c2cncc(-c3ccc(NC(=O)Nc4cc(C(F)(F)F)ccc4F)cc3)c12 [Example 7, 1-[4-(3-Amino-1H-pyrazolo[3,4-c]pyrid-4-yl)phenyl]-3-(2-fluoro-5-trifluoromethylphenyl)urea] |  |  | 8.05 | 196
7 | COc1ccc(C(F)(F)F)cc1NC(=O)Nc1ccc(-c2nccc3[nH]nc(N)c23)cn1 [Example 9, 1-[5-(3-Amino-1H-pyrazolo[4,3-c]pyrid-4-yl)pyrid-2-yl]-3-(2-methoxy-5-trifluoromethylphenyl)urea] |  |  |  | 228
8 | CC(=O)Nc1ccc(C(F)(F)F)cc1NC(=O)Nc1ccc(-c2nccc3[nH]nc(N)c23)cc1 [Example 11, N-(2-{3-[4-(3-Amino-1H-pyrazolo[4,3-c]pyrid-4-yl)phenyl]ureido}-4-trifluoromethylphenyl)acetamide] |  |  |  | 182
9 | CCOc1ccc(C(F)(F)F)cc1NC(=O)Nc1ccc(-c2ccnc3[nH]nc(N)c23)cc1 [Example 14, 1-[4-(3-Amino-1H-pyrazolo[3,4-b]pyrid-4-yl)phenyl]-3-(2-ethoxy-5-trifluoromethylphenyl)urea] |  | 7.62 | 7.68 | 
10 | COc1ccc(C(F)(F)F)cc1NC(=O)Nc1ccc(-c2cncc3[nH]nc(N)c23)cc1 [Example 38, 1-[4-(3-Amino-1H-pyrazolo[3,4-c]pyrid-4-yl)phenyl]-3-(2-methoxy-5-trifluoromethylphenyl]urea] |  |  |  | 210

Other lines, results leading:

Row | pIC50 (human FAK) | pIC50 (human KDR enzyme) | pIC50 (human Tie2) | melting point [°C] | Compound
11 | 7.14 | 7.48 | 8.30 |  | Nc1n[nH]c2ccnc(-c3ccc(NC(=O)Nc4cc(C(F)(F)F)ccc4F)cc3)c12 [Example 3, 1-[4-(3-Amino-1H-pyrazolo[4,3-c]pyrid-4-yl)phenyl]-3-(2-fluoro-5-trifluoromethylphenyl)urea]
12 |  |  |  | 188 | Nc1n[nH]c2ccnc(-c3ccc(NC(=O)Nc4ccccc4)cc3)c12 [Example 8, 1-[4-(3-Amino-1H-pyrazolo[4,3-c]pyrid-4-yl]phenyl]-3-phenylurea]
13 |  | 7.22 | 8.00 | 200 | COc1ccc(C(F)(F)F)cc1NC(=O)Nc1ccc(-c2nccc3[nH]nc(N)c23)cc1 [Example 10, 1-[4-(3-Amino-1H-pyrazolo[4,3-c]pyrid-4-yl)phenyl]-3-(2-methoxy-5-trifluoromethylphenyl)urea]
14 |  |  |  | 195 | Cc1ccc(F)c(NC(=O)Nc2ccc(-c3nccc4[nH]nc(N)c34)cc2)c1 [Example 27, 1-[4-(3-Amino-1H-pyrazolo[4,3-c]pyrid-4-yl)phenyl]-3-(2-fluoro-5-methylphenyl-)urea]
15 |  |  |  | 181 | COc1ccc(C(C)(C)C)cc1NC(=O)Nc1ccc(-c2nccc3[nH]nc(N)c23)cc1 [Example 29, 1-[4-(3-Amino-1H-pyrazolo[4,3-c]pyrid-4-yl)phenyl]-3-(5-tert-butyl-2-methoxyphenyl)urea]
16 |  |  |  | 187 | Nc1n[nH]c2ccnc(-c3ccc(NC(=O)Nc4cc(F)ccc4F)cc3)c12 [Example 32, 1-[4-(3-Amino-1H-pyrazolo[4,3-c]pyrid-4-yl)phenyl]-3-(2,5-difluorophenyl)urea]
17 |  |  |  | > 265 | Cc1ccc(F)cc1NC(=O)Nc1ccc(-c2nccc3[nH]nc(N)c23)cc1 [Example 34, 1-[4-(3-Amino-1H-pyrazolo[4,3-c]pyrid-4-yl)phenyl]-3-(5-fluoro-2-methylphenyl)urea]
